Assay results: patent US5821353A, “DNA encoding 1,3 beta-D glucan synthase subunits” (Merck & Co., Inc., priority 1996, dated 1998)

Key:
Pneumocystis carinii = conditions: rat model of P. carinii pneumonia; Schmatz et al. 1990; cited from earlier work
[1] = biological target: 1,3-beta-D glucan synthase from X2180-1A (Saccharomyces cerevisiae, UniProt P38631); assay: 1,3-beta-D glucan synthase assay, membrane preparation; type: biochemical; conditions: membranes of X2180-1A
Experimental: Cell free extracts were prepared from mutant and wild type cells grown to logarithmic phase as previously described (Kang and Cabib, PNAS, 83:5808-5812, 1986). After homogenization with glass beads, the unbroken cells and debris were removed by a low speed centrifugation (1,000×gfor 5 min). The supernatant fluids were centrifuged at 100,000×g for 60 min and the pellets were washed with 2.5 ml (per gram of wet cells) of buffer containing 0.05M potassium phosphate (pH 7.5), 0.5 mM DTT, and 1.0 mM PMSF. The washed pellet was resuspended in the same buffer containing 5% glycerol. This served as the microsomal membranes source containing both chitin and glucan synthase enzymatic activities. The standard 1,3-beta-D glucan synthase reaction was initiated by mixing 35 mcg protein in cocktail I, which included TEK buffer (125 mM Tris chloride, pH 7.5, 31 mM KF, and 1 mM EDTA), 25% PBS, pH 7.0, 3.31 mcM GTP-gamma-S, and 0.25% BSA in a total volume of 69 mcL, with cocktail II, which included 4 units alpha-amylase, 25 mcg UDP-glucose, and 1 microCi UDP-^3 H-glucose, in a total volume of 11 mcL. Following 150 minutes of incubation at 30° C., the incorporation of UDP-^[…] into glucan was measured after precipitation with trichloroacetic acid.
Crude enzyme preparations associated with cell membranes were tested for glucan and chitin synthesis activities. […]

[2] = system: S. cerevisiae YFK798 (fks1-1 + CN); assay: primary screen, zone size on agar (calcineurin counter screen); type: cell-based, Saccharomyces cerevisiae; conditions: 20 ng FK506, 10 mcg CsA, 10 mcg L733,560, 20 mcg aculeacin, 20 mcg papulacandin, 48 h
Experimental: Counter screening strains were devised for identifying calcineurin inhibitors. Overexpression of yeast calcineurin in the fks1-1 mutant (strain YFK798) constitutes the most general of these. […] Glucan synthase inhibitors show neither effect and thus can be distinguished from calcineurin inhibitors.
(§1) Each strain is grown at 28°-30° C. in YPAD/10 mM CaCl2 medium with shaking at 220 rpm (to mid or late log phase). The cultures are diluted 1:10 with water, and the OD values of the dilutions are measured at 600 nm (against a blank of YPAD/10 mM CaCl2 similarly diluted 1:10 in water). The OD value is multiplied by 10 to estimate the OD of the culture. Portions (100 ml) of YPAD/10 mM CaCl2 medium containing 1.5% agar, equilibrated at 45° C. in a water bath, are seeded with culture such that the final cell density in the agar would have an OD value of 0.015 (i.e., 3×10^6 cfu/ml; a sample calculation is provided below). The seeded agar is poured into 500 cm^2 Nunc plates. Once the agar plates have solidified, 10 mcL aliquots of samples containing test compounds, such as fermentation extracts, are dissolved in water, 100% methanol or ethanol, or up to 50% DMSO and are placed on each member of the two-plate set in 11 by 8 arrays.
(§2) The plates are incubated for 48 h at 28°-30° C. Diameters of the zones are read to the outermost edge and recorded in mm. The clarity of the zone is reported as clear (no designation), hazy (h), or very hazy (vh). Very hazy zones are best seen by viewing the plate under an elevated light placed between the assay dish and a dark wall.

[3] = system: S. cerevisiae R560-1 / R560-1C (fks1-2); assay: liquid MIC assay of resistant clone; type: cell-based, Saccharomyces cerevisiae
Experimental: Strain W303-1A was transformed by the spheroplast method (MYG) with yeast genomic libraries obtained from D. Botstein (1982. Cell, 28:145-154). Transformants selected on uracil dropout medium were pooled and stored at -80° C. in 20% glycerol. After determining the titer (colony forming units(CFU)/ml), aliquots of the stocks were spread at .congruent.5×10^3 CFU per plate onto uracil dropout medium containing the semisynthetic echinocandin L-733,560 at 0.5 mcg/ml or 1.25 mcg/ml. This concentration of L-733,560 is sufficient to select for resistant clones. Twenty-seven drug resistant colonies were isolated. […] Briefly, L-733,560 was serially diluted across the wells of a sterile microtiter plate such that the concentration in each row ranged from 16 to 0.03 mcg/ml in 2-fold increments after an equal volume of a cell suspension in liquid uracil dropout medium was added. After 24 h at 30° C., plates were read in a spectrophotometer at a wavelength of 600 nm, and the percent of control growth in each well (relative to a no-drug control well) was calculated. […]
Because this strain was isolated as a transfornant from the genomic library, it was expected that resistance would be due to the gene residing on the plasmid contained in R560-1. […] R560-1C was mated to the wild type strain W303-1B, sporulated, dissected, and the sensitivity to L-733,560 quantitated by liquid MIC assay. […]

[4] = system: S. cerevisiae YFK007 (wild type); assay: primary screen, zone size on agar; type: cell-based, Saccharomyces cerevisiae; conditions: 20 ng FK506, 10 mcg CsA, 10 mcg L733,560, 20 mcg aculeacin, 20 mcg papulacandin, 48 h
Experimental: as §1, §2

[5] = system: S. cerevisiae YFK532-7C (fks1-1); assay: primary screen, zone size on agar; type: cell-based, Saccharomyces cerevisiae; conditions: 20 ng FK506, 10 mcg CsA, 10 mcg L733,560, 20 mcg aculeacin, 20 mcg papulacandin, 48 h
Experimental: as §1, §2

Chain of 1,3-beta-D glucan synthase from X2180-1A (P38631 whole entry): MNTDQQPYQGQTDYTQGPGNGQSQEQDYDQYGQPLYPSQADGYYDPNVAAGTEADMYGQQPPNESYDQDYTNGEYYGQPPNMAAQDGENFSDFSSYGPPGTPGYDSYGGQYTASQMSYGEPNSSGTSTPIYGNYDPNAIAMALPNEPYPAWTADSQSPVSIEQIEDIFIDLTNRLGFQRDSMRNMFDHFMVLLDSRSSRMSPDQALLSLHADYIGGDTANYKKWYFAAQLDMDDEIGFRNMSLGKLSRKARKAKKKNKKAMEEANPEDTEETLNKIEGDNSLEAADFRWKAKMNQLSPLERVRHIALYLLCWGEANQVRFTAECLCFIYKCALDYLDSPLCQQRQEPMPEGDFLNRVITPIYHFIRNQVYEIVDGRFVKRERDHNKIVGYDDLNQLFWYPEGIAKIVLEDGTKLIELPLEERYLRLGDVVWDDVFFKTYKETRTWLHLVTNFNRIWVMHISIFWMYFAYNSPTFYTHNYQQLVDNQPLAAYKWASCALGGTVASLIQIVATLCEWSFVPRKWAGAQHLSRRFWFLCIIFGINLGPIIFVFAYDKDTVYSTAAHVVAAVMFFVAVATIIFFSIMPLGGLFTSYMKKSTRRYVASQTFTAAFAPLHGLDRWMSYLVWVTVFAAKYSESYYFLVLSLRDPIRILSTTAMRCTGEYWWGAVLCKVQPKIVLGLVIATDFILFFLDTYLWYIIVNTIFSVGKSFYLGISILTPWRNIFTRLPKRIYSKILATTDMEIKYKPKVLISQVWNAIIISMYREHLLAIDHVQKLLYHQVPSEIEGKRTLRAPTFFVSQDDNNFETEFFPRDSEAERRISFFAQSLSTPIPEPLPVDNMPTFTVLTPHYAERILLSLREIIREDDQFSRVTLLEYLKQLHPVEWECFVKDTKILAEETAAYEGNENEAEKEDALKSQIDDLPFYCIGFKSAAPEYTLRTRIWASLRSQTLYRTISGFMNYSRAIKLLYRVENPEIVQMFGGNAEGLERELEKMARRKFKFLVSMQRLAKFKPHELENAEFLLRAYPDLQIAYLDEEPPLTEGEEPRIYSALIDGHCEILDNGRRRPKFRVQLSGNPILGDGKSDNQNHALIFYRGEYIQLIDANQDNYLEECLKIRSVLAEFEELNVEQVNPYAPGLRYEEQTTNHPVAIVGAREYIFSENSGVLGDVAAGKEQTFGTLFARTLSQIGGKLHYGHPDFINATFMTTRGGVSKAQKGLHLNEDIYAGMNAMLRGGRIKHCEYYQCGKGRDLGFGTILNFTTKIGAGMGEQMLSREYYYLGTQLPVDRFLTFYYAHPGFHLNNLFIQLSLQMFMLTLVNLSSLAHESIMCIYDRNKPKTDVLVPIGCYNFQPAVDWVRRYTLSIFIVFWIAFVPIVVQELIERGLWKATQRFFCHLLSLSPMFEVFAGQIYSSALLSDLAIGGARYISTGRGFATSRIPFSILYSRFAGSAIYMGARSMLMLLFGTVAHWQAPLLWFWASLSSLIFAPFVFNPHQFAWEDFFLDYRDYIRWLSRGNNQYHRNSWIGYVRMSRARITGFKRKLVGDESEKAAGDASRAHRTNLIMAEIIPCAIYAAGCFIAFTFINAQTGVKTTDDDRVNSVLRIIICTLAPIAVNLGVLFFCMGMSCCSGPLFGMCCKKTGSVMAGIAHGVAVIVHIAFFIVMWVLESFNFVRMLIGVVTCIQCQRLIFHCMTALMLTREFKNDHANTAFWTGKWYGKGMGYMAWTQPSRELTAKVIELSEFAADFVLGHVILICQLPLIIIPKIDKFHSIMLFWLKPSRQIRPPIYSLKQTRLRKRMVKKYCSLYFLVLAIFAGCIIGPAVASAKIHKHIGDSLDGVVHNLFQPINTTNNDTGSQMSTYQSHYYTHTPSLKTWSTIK
Chain of 1,3-beta-D glucan synthase from X2180-1A (P06780 1-206, further chain): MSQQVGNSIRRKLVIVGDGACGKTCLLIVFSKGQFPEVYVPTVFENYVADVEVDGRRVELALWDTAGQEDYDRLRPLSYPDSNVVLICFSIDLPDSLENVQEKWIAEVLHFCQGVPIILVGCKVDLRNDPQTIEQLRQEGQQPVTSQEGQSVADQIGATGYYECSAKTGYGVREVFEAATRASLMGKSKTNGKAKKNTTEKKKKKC

dihydropapulacandin [L-687,781]
reducing the number of cysts in the lungs of infected rats (Pneumocystis carinii): effective
IC50 [1]: 5.08 µg/mL
Primary Screen Zone size (mm) [2]: 26-28 mm
resistance phenotype in liquid MIC assay [3]: resistance phenotype
Primary Screen Zone size (mm) [4]: 20-22 mm
Primary Screen Zone size (mm) [5]: 26-28 mm
